“Also recorded” adds a separate entry of the source. Read-outs that look alike come from different tables or passages of the source.
Key:
GFAP = assay: Immunolabeling of glial fibrillary acidic protein (GFAP), 3-month study; type: in vivo, mouse; details: for change in GFAP immunolabeling vs vehicle-treated Line 61 transgenic mice: cortex and hippocampus (P < 0.0001); for GFAP immunolabeling, mean: 3 months, adjusted P <0.0001
Description: (§1) A transgenic mouse model of Parkinson’s disease overexpressing human wild-type ASYN under the murine Thy-1 promoter on a mixed C57Bl/6 background was used in the present studies (commonly referred to Line 61)[49]. The Line 61 transgenic mouse model of Parkinson’s disease develops extensive accumulation of ASYN in areas relevant to Parkinson’s disease[49]–[51], neurodegeneration (as evidenced by loss of tyrosine hydroxylase[52],[53] and dopamine transporter immunoreactivity[18] in the striatum), inflammation, and both motor and non-motor functional deficits. Multiple cohorts of mice were transferred from the University of California, San Diego to a Neuropore-funded AAALAC-accredited vivarium facility per a laboratory service agreement between Neuropore Therapies, Inc. and the laboratory of Dr. Eliezer Masliah under institutional animal care and use committee (IACUC) Protocol S02221. All in vivo testing was conducted by Neuropore personnel under Explora Biosciences animal care and use protocol (ACUP) number E15-016-2. Three-month-old male transgenic and age-matched non-transgenic littermate control mice were used and housed up to 5 per cage. Animals received free access to food and water prior to the experiment. The vivarium ambient room temperature was monitored daily and kept within a range of 68–72 degrees Fahrenheit. Animals were kept on a 12:12 diurnal light cycle, with lights on at 0600.
(§2) Minzasolmin was dissolved in a vehicle solution consisting of 40% Captisol (CyDex Pharmaceuticals, Inc.; Kansas, USA) in sterile water and administered at a volume of 0.1 ml/20 g of body weight. Animals received a Monday–Friday daily intraperitoneal injection of vehicle, or 1 or 5 mg/kg minzasolmin for approximately 90 days. Animals received treatment up to and including a final injection 1 h prior to euthanasia. All study solutions were blind coded and experimenters were blinded to genotype and treatment group assignments for the duration of the study, ex vivo evaluations (i.e., neuropathology sample processing and imaging, videotape scoring) and through penultimate data analyses (i.e., data quality control with documented exclusions prior to unblinding; unblinding required for a priori pairwise comparisons).
All subjects were euthanized within 1 h of the last treatment and brain and blood were collected. Tissue processing and imaging methods were conducted as described previously[17],[18],[52] and performed under a lab service agreement between UCSD and Neuropore Therapies. All samples were blind coded to genotype and treatment group throughout immune-histological processing and imaging. The right hemibrain was post-fixed in phosphate-buffered 4% paraformaldehyde (pH 7.4) at 4 °C for 48 and then serially sectioned into […] thick […] sections using a vibratome. Sections were free-floated and incubated overnight at 4 °C with primary antibodies. To confirm the specificity of primary antibodies, control experiments were performed in which sections were incubated overnight in the absence of primary antibody, pre-immune serum, or primary antibody pre-adsorbed for 48 h with 20-fold excess of the corresponding peptide. Tissue collection, processing, and imaging methods were conducted as described previously. Briefly, the right hemibrain was post-fixed in phosphate-buffered 4% paraformaldehyde (pH 7.4) at 4 °C for 48 h, and then serially sectioned into 40 µm thick coronal sections using a vibratome. Sections were free-floated and incubated overnight at 4 °C with primary antibodies. To confirm the specificity of primary antibodies, control experiments were performed in which sections were incubated overnight in the absence of primary antibody (data not shown). Immunolabeled sections were imaged with a Zeiss 63× (N.A. 1.4) objective on an Axiovert 35 microscope (Zeiss, Germany). Immunolabeling was evaluated as a corrected optical density across a field of view. […]

Line 61 transgenic mice = assay: Round beam traversal test (composite gait score), 3-month administration study; type: in vivo, mouse; details: for round beam composite score, Kruskal-Wallis mean rank: Line 61 tg, Line 61 tg/Vehicle 6.611, Non-tg/Vehicle 34.25
Description: as §1, with “Animals were kept on a 12:12 diurnal light cycle, with lights on at 0600.” left out
Line 61 transgenic mice have robust and visually apparent deficits in gait as evaluated in the round beam traversal test by 6 months of age that are improved by treatment with small molecule compounds including ASYN misfolding inhibitors[17],[18] and the molecular tweezer compound CLR01[56]. […] Videotapes were then scored by a secondary evaluator using a newly developed composite rating system for specific observed features of Line 61 gait during the round beam assessment. […] Scores were analyzed by nonparametric Kruskal–Wallis one-way ANOVA with key comparisons defined a priori, first to test for a phenotypic difference between vehicle-treated groups and then to test for minzasolmin-related treatment effects in Line 61 transgenic mice. […]

[1] = set-up: method as in PMID 35959805; details: normal healthy volunteers and patients with Parkinson's disease; cited from earlier work
[2] = Bioanalysis of compound levels in plasma and brain after long-term treatment; type: in vivo; details: mouse, ip, Line 61 transgenic mice, 1 h post final dose, mean ± S.E.M.
Experimental: as §2
All subjects were euthanized within 1 h of the last treatment and brain and blood were collected. Tissue processing and imaging methods were conducted as described previously[17],[18],[52] and performed under a lab service agreement between UCSD and Neuropore Therapies. All samples were blind coded to genotype and treatment group throughout immune-histological processing and imaging. The right hemibrain was post-fixed in phosphate-buffered 4% paraformaldehyde (pH 7.4) at 4 °C for 48 and then serially sectioned into […] thick sagittal sections using a vibratome. Sections were free-floated and incubated overnight at 4 °C with primary antibodies. To confirm the specificity of primary antibodies, control experiments were performed in which sections were incubated overnight in the absence of primary antibody, pre-immune serum, or primary antibody pre-adsorbed for 48 h with 20-fold excess of the corresponding peptide. Tissue collection, processing, and imaging methods were conducted as described previously. Briefly, the right hemibrain was post-fixed in phosphate-buffered 4% paraformaldehyde (pH 7.4) at 4 °C for 48 h, and then serially sectioned into 40 µm thick coronal sections using a vibratome. Sections were free-floated and incubated overnight at 4 °C with primary antibodies. To confirm the specificity of primary antibodies, control experiments were performed in which sections were incubated overnight in the absence of primary antibody (data not shown). Immunolabeled sections were imaged with a Zeiss 63× (N.A. 1.4) objective on an Axiovert 35 microscope (Zeiss, Germany). Immunolabeling was evaluated as a corrected optical density across a field of view. Summary tables of statistics for each measure are presented in Supplementary Tables 1–5.
Analysis of minzasolmin by HPLC-MS/MS in plasma and brain homogenate study subject samples was conducted by PRA Health Sciences (Lenexa, KS, USA). Group means were obtained using Graph Pad Prism v. […]

SMILES: CCCC[C@H](Cc1c[nH]c2ccccc12)NC(=O)c1cnc(N2CCN(C)CC2)s1 [minzasolmin]
- change in GFAP immunolabeling vs vehicle-treated Line 61 transgenic mice (GFAP; 1 mg/kg): decreased
- change in GFAP immunolabeling vs vehicle-treated Line 61 transgenic mice (GFAP; 5 mg/kg): decreased
- effect of dose on GFAP levels, 1 vs. 5 mg/kg (GFAP; cortex and hippocampus): no statistically significant effect
- GFAP immunolabeling, mean (GFAP; cortex, Line 61 tg/1 mg/kg (first group of that name), Line 61 tg/Vehicle 223.1): 155.9
- GFAP immunolabeling, mean (GFAP; cortex, Line 61 tg/1 mg/kg as printed (second group of that name), Line 61 tg/Vehicle 223.1): 169.3
- GFAP immunolabeling, mean (GFAP; hippocampus, Line 61 tg/1 mg/kg (first group of that name), Line 61 tg/Vehicle 350.8): 271.6
- GFAP immunolabeling, mean (GFAP; hippocampus, Line 61 tg/1 mg/kg as printed (second group of that name), Line 61 tg/Vehicle 350.8): 289.7
- effect on round beam composite score (gait) vs vehicle-treated Line 61 transgenic mice (Line 61 transgenic mice; 1 mg/kg, after 70 days of treatment, P < 0.01): improved; also recorded: attenuated
- round beam composite score, Kruskal-Wallis mean rank (Line 61 transgenic mice; 1 mg/kg): 21.77
- round beam composite score, Kruskal-Wallis mean rank (Line 61 transgenic mice; 5 mg/kg): 16.80
- safety and pharmacokinetic profiles [1]: favorable
- concentration at 1 h ([2]; brain, 1 mg/kg i.p. daily about 90 days, read-out: [minzasolmin] Brain): 12.1 ± 1.5 ng/g
- concentration at 1 h ([2]; brain, 5 mg/kg i.p. daily about 90 days, read-out: [minzasolmin] Brain): 69.5 ± 4.7 ng/g
- concentration at 1 h ([2]; plasma, 1 mg/kg i.p. daily about 90 days, read-out: [minzasolmin] Plasma): 72.3 ± 7.9 ng/mL
- concentration at 1 h ([2]; plasma, 5 mg/kg i.p. daily about 90 days, read-out: [minzasolmin] Plasma): 357 ± 16.8 ng/mL

Reference: publication PMC10352257, “In vivo effects of the alpha-synuclein misfolding inhibitor minzasolmin supports clinical development in Parkinson’s disease” (NPJ Parkinson's Disease, 2023)
